In data set [1] the test system is PPC-1 prostate cancer cells. Briefly: Alamar Blue proliferation assay, PPC-1. It is filed as cell-based, human. The conditions noted are these: PPC-1 cells, 30 nM, normalized to negative control miRNA (100% proliferation). From the text:
The inventors assessed the therapeutic effect of hsa-miR-126 for prostate cancer by using 4 individual human prostate cancer cell lines. To measure cellular proliferation of prostate cancer cells, the following prostate cancer cell lines were used: PPC-1, derived from a bone metastasis; Du145, derived from a brain metastasis; RWPE2, derived from prostate cells immortalized by human papillomavirus 18 and transformed by the K-RAS oncogene; and LNCaP, derived from a lymph node metastasis (Stone et al., 1978; Horoszewicz et al., 1980; Brothman et al., 1991; Pretlow et al., 1993; Bello et al., 1997). PPC-1 and Du145 cells lack expression of the prostate-specific antigen (PSA) and are independent of androgen receptor (AR) signaling. In contrast, RWPE2 and LNCaP cells test positive for PSA and AR. Cells were transfected with synthetic hsa-miR-126 (Pre-miR™-hsa-miR-126, Ambion cat. no. AM 17100) or negative control miRNA (NC; Pre-miR™ microRNA Precursor Molecule-Negative Control #2; Ambion cat. no. AM17111) in a 96-well format using a lipid-based transfection reagent. […] Proliferation was assessed 4-7 days post-transfection using Alamar Blue™ (Invitrogen) following the manufacturer's instructions. […] Fluorescent light units (FLU) were measured after 3 hours, normalized to the control, and plotted as percent change in proliferation. […]
For orientation: The colour change of resazurin is a common sign of viable cells or microbes.

For data set [2], the system named is PPC-1 prostate cancer cells. Briefly: Long-term growth curve with repeated electroporation, PPC-1. It is filed as cell-based, human. An excerpt:
To evaluate the therapeutic activity of hsa-miR-126 over an extended period of time, we conducted growth curve experiments in the presence of miRNA for up to 21 days. Since in vitro transfections of naked interfering RNAs, such as synthetic miRNA, are transient by nature and compromised by the dilution of the oligonucleotide during ongoing cell divisions, we administered miRNA at multiple time points (Bartlett and Davis, 2006; Bartlett and Davis, 2007). To accommodate miRNA delivery into a large quantity of cells, we employed the electroporation method to delivery hsa-miR-126 or negative control miRNA into PPC-1, PC3 and Du145 human prostate cancer cells. Briefly, 1×10^6 PPC-1 or PC3 cells, and 0.5×10^6 Du145 cells were electroporated with 1.6 μM hsa-miR-126 or negative control using the BioRad Gene Pulser Xcell™ instrument (BioRad Laboratories Inc., Hercules, Calif., USA), seeded and propagated in regular growth medium. Experiments with PC3 and Du145 cells were carried out in triplicates. When the control cells reached confluence (days 4 and 11 for PPC-1; days 7 and 14 for PC3 and Du145), cells were harvested, counted and electroporated again with the respective miRNAs. […] The population doubling was calculated from these electroporation events using the formula PD=ln(Nf/N0)/ln2, and cell counts were extrapolated and plotted on a linear scale (FIGS. 10-12). […]

For data set [3], the system named is human A549 lung cancer xenografts. Briefly: A549 lung cancer xenograft, cells electroporated before implantation. The format is in vivo, NOD/SCID mice. On the procedure:
The inventors assessed the growth-inhibitory activity of hsa-miR-126 in human lung cancer xenografts grown in immunodeficient mice. Hsa-miR-126 was delivered into A549 and H460 lung cancer cells via electroporation using the Gene Pulser Xcell™ (BioRad) with the following settings: 15×10^6 cells with 5 μg miRNA in 200 μl OptiMEM, square wave pulse at 150 V for 10 ms. Electroporated cells (5×10^6) were mixed with BD Matrigel™, (BD Biosciences; San Jose, Calif., USA; cat. no. 356237) in a 1:1 ratio and injected subcutaneously into the flank of NOD/SCID mice (Charles River Laboratories, Inc.; Wilmington, Mass., USA). As a negative control, A549 and H460 cells were electroporated with negative control (NC) miRNA (Pre-miR™ microRNA Precursor Molecule-Negative Control #2; Ambion cat. no. AM17111) as described above. To assess the anti-oncogenic activity of hsa-miR-126, six animals were injected with A459 cells and six animals were injected with H460 cells. NC miRNA-treated cells were injected into the opposite flank of the same animal to control for animal-to-animal variability. Once tumors reached a measurable size (A549 at 7 days post injection; H460 at 5 days post injection), the length and width of tumors were determined every day for up to 11 days. Tumor volumes were calculated using the formula, Volume=length X width X width/2, in which the length is greater than the width. For animals carrying A549 xenografts, tumor volumes derived from NC-treated cells and hsa-miR-126-treated cells were averaged and plotted over time (FIG. 4). The p value, indicating statistical significance, is shown for values obtained on day 18 (p=0.0125).

Data set [4] relates to human leukemia cells (Jurkat) and normal human T cells. The conditions noted are these: cited from earlier work.

Consider 1 substance from US20090131354A1, “miR-126 REGULATED GENES AND PATHWAYS AS TARGETS FOR THERAPEUTIC INTERVENTION” (priority 2007, published 2009).

As for “hsa-miR-126 (UCGUACCGUGAGUAAUAAUGC; synthetic pre-miR form, further chemistry not given here) [Synthetic hsa-miR-126 (Pre-miR™-hsa-miR-126, Ambion cat. no. AM17100)]”, the “% proliferation” value in data set [1] turned out to be 71.89%. In data set [2] (PPC-1, day 18, 1.6 μM repeated electroporation, relative to control cells (100%)), the “inhibition of cell growth” value is recorded as 91.3%. The substance also registered a remaining cells in data set [2] (PPC-1, day 18, relative to control cells (100%)) of 8.7%. The “tumor size relative to control tumors” value in data set [3] (A549, day 18, n=6) is “all animals showed smaller tumors”. Also, the “tumor growth in vivo” value in data set [3] (A549 cells electroporated with miRNA before s.c. implantation) is “inhibited tumor growth in vivo”. In data set [3] (A549 tumors), the “Ki-67 antigen in tumors (histology)” value is recorded as “diminished levels of the Ki-67 antigen”. In addition, the effect on proliferation entry in data set [4] was “increasing the proliferation”.
